Measurements published in patent US12522595B2, “Bicyclic ether O-glycoprotein-2-acetamido-2-deoxy-3-D-glucopyranosidase inhibitors” (BIOGEN MA INC., priority 2019, dated 2026).

The compounds below were run against T1, Recombinant full length human OGA enzyme (Homo sapiens, UniProt O60502) (assay: OGA enzyme inhibition biochemical assay). Details: 1 nM OGA, 100 μM 4-MUGlcNAc (Km), pH 6.4, 90 minutes at room temperature, 10-point dose-response from 20 μM.
T1 construct: Recombinant full length human OGA enzyme was purchased from Origene; purchased Origene
T1 sequence (O60502 1-916): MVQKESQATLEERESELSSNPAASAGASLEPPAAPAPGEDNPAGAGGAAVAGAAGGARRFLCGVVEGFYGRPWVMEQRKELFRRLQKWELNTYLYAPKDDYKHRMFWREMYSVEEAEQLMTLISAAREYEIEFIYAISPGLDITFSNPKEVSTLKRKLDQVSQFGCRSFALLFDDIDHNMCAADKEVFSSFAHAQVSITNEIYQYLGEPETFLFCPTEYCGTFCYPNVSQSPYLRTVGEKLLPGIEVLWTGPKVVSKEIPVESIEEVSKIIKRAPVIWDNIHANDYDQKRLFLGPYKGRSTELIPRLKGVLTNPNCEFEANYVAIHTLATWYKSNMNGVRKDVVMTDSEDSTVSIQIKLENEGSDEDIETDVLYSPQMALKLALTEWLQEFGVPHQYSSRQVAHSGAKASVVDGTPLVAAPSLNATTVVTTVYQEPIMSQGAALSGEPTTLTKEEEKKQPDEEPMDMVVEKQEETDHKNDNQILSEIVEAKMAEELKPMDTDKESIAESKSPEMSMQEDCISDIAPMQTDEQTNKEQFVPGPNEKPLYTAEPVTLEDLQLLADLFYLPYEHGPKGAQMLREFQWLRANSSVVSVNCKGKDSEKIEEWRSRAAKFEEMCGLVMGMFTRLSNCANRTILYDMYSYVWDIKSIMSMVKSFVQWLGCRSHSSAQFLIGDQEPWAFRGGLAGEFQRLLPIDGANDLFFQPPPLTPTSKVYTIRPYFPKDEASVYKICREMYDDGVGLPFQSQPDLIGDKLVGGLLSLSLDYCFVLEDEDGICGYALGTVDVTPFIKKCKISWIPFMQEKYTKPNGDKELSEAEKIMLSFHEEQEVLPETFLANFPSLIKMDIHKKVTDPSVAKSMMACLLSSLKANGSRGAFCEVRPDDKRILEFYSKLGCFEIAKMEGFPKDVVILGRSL
Outline: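 1 nM OGA with 100 μM 4-MUGlcNAc (Km) in McIlvaine buffer pH 6.4, 0.01% BSA, 90 min at room temperature; quenched with 3M glycine pH 10, fluorescence Ex 355/Em 460 nm. 10-point, 4-fold dilutions from 20 μM; 4-parameter variable-slope fit.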

Compound	IC50 [nM]
CC(=O)Nc1nc(F)c(CN2C[C@H](Oc3ccnc4c3cnn4C)C[C@@H]2C)s1 [Example 139, N-(4-fluoro-5-(((2S,4R)-2-methyl-4-((1-methyl-1H-pyrazolo[3,4-b]pyridin-4-yl)oxy)pyrrolidin-1-yl)methyl)thiazol-2-yl)acetamide]	< 1
CC(=O)Nc1ncc(CN2C[C@H](Oc3ccc4occc4n3)C[C@@H]2C)s1 [Example 65, N-(5-(((2S,4R)-4-(furo[3,2-b]pyridin-5-yloxy)-2-methylpyrrolidin-1-yl)methyl)thiazol-2-yl)acetamide]	< 1
CC(=O)Nc1nc(F)c(CN2C[C@H](Oc3ccn4nc(C)cc4n3)C[C@@H]2C)s1 [Example 112, N-(4-fluoro-5-(((2S,4R)-2-methyl-4-((2-methylpyrazolo[1,5-a]pyrimidin-5-yl)oxy)pyrrolidin-1-yl)methyl)thiazol-2-yl)acetamide]	< 1
CC(=O)Nc1ncc(CN2C[C@H](Oc3cn4nc(C)cc4cn3)C[C@@H]2C)s1 [Example 53, N-(5-(((2S,4R)-2-methyl-4-((2-methylpyrazolo[1,5-a]pyrazin-6-yl)oxy)pyrrolidin-1-yl)methyl)thiazol-2-yl)acetamide]	< 1
CC(=O)Nc1ncc(CN2C[C@H](Oc3ccc4ccc(F)cc4n3)C[C@@H]2C)s1 [Example 6, N-(5-(((2S,4R)-4-((7-fluoroquinolin-2-yl)oxy)-2-methylpyrrolidin-1-yl)methyl)thiazol-2-yl)acetamide]	< 1
CC(=O)Nc1nc(F)c(CN2C[C@H](Oc3ncnc4ccc(F)cc34)C[C@@H]2C)s1 [Example 123, N-(4-fluoro-5-(((2S,4R)-4-((6-fluoroquinazolin-4-yl)oxy)-2-methylpyrrolidin-1-yl)methyl)thiazol-2-yl)acetamide]	4.1
CC(=O)Nc1ncc(CN2C[C@H](Oc3cc(C(F)(F)F)c4cn(C)nc4n3)C[C@@H]2C)s1 [Example 12, N-(5-(((2S,4R)-2-methyl-4-((2-methyl-4-(trifluoromethyl)-2H-pyrazolo[3,4-b]pyridin-6-yl)oxy)pyrrolidin-1-yl)methyl)thiazol-2-yl)acetamide]	< 1
CC(=O)Nc1nc(F)c(CN2C[C@H](Oc3ccc4ncnn4c3C)C[C@@H]2C)s1 [Example 105, N-(4-fluoro-5-(((2S,4R)-2-methyl-4-((5-methyl-[1,2,4]triazolo[1,5-a]pyridin-6-yl)oxy)pyrrolidin-1-yl)methyl)thiazol-2-yl)acetamide]	< 1
CC(=O)Nc1nc(F)c(CN2C[C@H](Oc3ncnc4c3cnn4C)C[C@@H]2C)s1 [Example 143, N-(4-fluoro-5-(((2S,4R)-2-methyl-4-((1-methyl-1H-pyrazolo[3,4-d]pyrimidin-4-yl)oxy)pyrrolidin-1-yl)methyl)thiazol-2-yl)acetamide]	< 1
CC(=O)Nc1nc(F)c(CN2C[C@H](Oc3ccc4nn(C)nc4n3)C[C@@H]2C)s1 [Example 151, N-(4-fluoro-5-(((2S,4R)-2-methyl-4-((2-methyl-2H-[1,2,3]triazolo[4,5-b]pyridin-5-yl)oxy)pyrrolidin-1-yl)methyl)thiazol-2-yl)acetamide]	< 1
CC(=O)Nc1ncc(CN2C[C@H](Oc3ccn4nccc4c3)C[C@@H]2C)s1 [Example 59, N-(5-(((2S,4R)-2-methyl-4-(pyrazolo[1,5-a]pyridin-5-yloxy)pyrrolidin-1-yl)methyl)thiazol-2-yl)acetamide]	< 1
CC(=O)Nc1ncc(CN2C[C@H](Oc3ccnc4nc(C(F)(F)F)nn34)C[C@@H]2C)s1 [Example 34, N-(5-(((2S,4R)-2-methyl-4-((2-(trifluoromethyl)-[1,2,4]triazolo[1,5-a]pyrimidin-7-yl)oxy)pyrrolidin-1-yl)methyl)thiazol-2-yl)acetamide]	22
COc1cc2cnc(O[C@@H]3C[C@H](C)N(Cc4sc(NC(C)=O)nc4F)C3)cc2cc1F [Example 130, N-(4-fluoro-5-(((2S,4R)-4-((6-fluoro-7-methoxyisoquinolin-3-yl)oxy)-2-methylpyrrolidin-1-yl)methyl)thiazol-2-yl)acetamide]	< 1
CC(=O)Nc1nc(F)c(CN2C[C@H](Oc3ccn4nncc4c3)C[C@@H]2C)s1 [Example 149, N-(5-(((2S,4R)-4-([1,2,3]triazolo[1,5-a]pyridin-5-yloxy)-2-methylpyrrolidin-1-yl)methyl)-4-fluorothiazol-2-yl)acetamide]	< 1
CC(=O)Nc1ncc(CN2C[C@H](Oc3cccc4cnn(C)c34)C[C@@H]2C)s1 [Example 160, N-(5-(((2S,4R)-2-methyl-4-((1-methyl-1H-indazol-7-yl)oxy)pyrrolidin-1-yl)methyl)thiazol-2-yl)acetamide]	2.4
CC(=O)Nc1ncc(CN2C[C@H](Oc3ccnc4ccc(C)cc34)C[C@@H]2C)s1 [Example 23, N-(5-(((2S,4R)-2-methyl-4-((6-methylquinolin-4-yl)oxy)pyrrolidin-1-yl)methyl)thiazol-2-yl)acetamide]	2.4
CC(=O)Nc1ncc(CN2C[C@H](Oc3ccnc4cc(F)ccc34)C[C@@H]2C)s1 [Example 17, N-(5-(((2S,4R)-4-((7-fluoroquinolin-4-yl)oxy)-2-methylpyrrolidin-1-yl)methyl)thiazol-2-yl)acetamide]	< 1
CC(=O)Nc1nc(F)c(CN2C[C@H](Oc3nc4ncccc4o3)C[C@@H]2C)s1 [Example 158, N-(4-fluoro-5-(((2S,4R)-2-methyl-4-(oxazolo[4,5-b]pyridin-2-yloxy)pyrrolidin-1-yl)methyl)thiazol-2-yl)acetamide]	< 1
CC(=O)Nc1ncc(CN2C[C@H](Oc3nccc4occc34)C[C@@H]2C)s1 [Example 69, N-(5-(((2S,4R)-4-(furo[3,2-c]pyridin-4-yloxy)-2-methylpyrrolidin-1-yl)methyl)thiazol-2-yl)acetamide]	2.7
CC(=O)Nc1ncc(CN2C[C@H](Oc3nn4c(C(F)(F)F)nnc4c(C)c3C)C[C@@H]2C)s1 [Example 20, N-(5-(((2S,4R)-4-((7,8-dimethyl-3-(trifluoromethyl)-[1,2,4]triazolo[4,3-b]pyridazin-6-yl)oxy)-2-methylpyrrolidin-1-yl)methyl)thiazol-2-yl)acetamide]	1.6
CC(=O)Nc1ncc(CN2C[C@H](Oc3ncnc4occc34)C[C@@H]2C)s1 [Example 46, N-(5-(((2S,4R)-4-(furo[2,3-d]pyrimidin-4-yloxy)-2-methylpyrrolidin-1-yl)methyl)thiazol-2-yl)acetamide]	1.1
CC(=O)Nc1nc(F)c(CN2C[C@H](Oc3cn4cccnc4n3)C[C@@H]2C)s1 [Example 92, N-(4-fluoro-5-(((2S,4R)-4-(imidazo[1,2-a]pyrimidin-2-yloxy)-2-methylpyrrolidin-1-yl)methyl)thiazol-2-yl)acetamide]	< 1
CC(=O)Nc1nc(F)c(CN2C[C@H](Oc3ccc4nn(C)cc4c3)C[C@@H]2C)s1 [Example 50, N-(4-fluoro-5-(((2S,4R)-2-methyl-4-((2-methyl-2H-indazol-5-yl)oxy)pyrrolidin-1-yl)methyl)thiazol-2-yl)acetamide]	< 1
COc1nc(O[C@@H]2C[C@H](C)N(Cc3sc(NC(C)=O)nc3F)C2)cc2cc(F)ccc12 [Example 131, N-(4-fluoro-5-(((2S,4R)-4-((6-fluoro-1-methoxyisoquinolin-3-yl)oxy)-2-methylpyrrolidin-1-yl)methyl)thiazol-2-yl)acetamide]	< 1
CC(=O)Nc1ncc(CN2C[C@H](Oc3cc4cnn(C)c4cn3)C[C@@H]2C)s1 [Example 88, N-(5-(((2S,4R)-2-methyl-4-((1-methyl-1H-pyrazolo[3,4-c]pyridin-5-yl)oxy)pyrrolidin-1-yl)methyl)thiazol-2-yl)acetamide]	< 1
CC(=O)Nc1ncc(CN2C[C@H](Oc3nccc4ccsc34)C[C@@H]2C)s1 [Example 11, N-(5-(((2S,4R)-2-methyl-4-(thieno[2,3-c]pyridin-7-yloxy)pyrrolidin-1-yl)methyl)thiazol-2-yl)acetamide]	< 1
CC(=O)Nc1ncc(CN2C[C@H](Oc3nc4cccnc4n3C)C[C@@H]2C)s1 [Example 91, N-(5-(((2S,4R)-2-methyl-4-((3-methyl-3H-imidazo[4,5-b]pyridin-2-yl)oxy)pyrrolidin-1-yl)methyl)thiazol-2-yl)acetamide]	5
COc1cc2ccnc(Cl)c2cc1O[C@@H]1C[C@H](C)N(Cc2sc(NC(C)=O)nc2F)C1 [Example 132, N-(5-(((2S,4R)-4-((1-chloro-6-methoxyisoquinolin-7-yl)oxy)-2-methylpyrrolidin-1-yl)methyl)-4-fluorothiazol-2-yl)acetamide]	< 1
